Results taken from patent publication US7855228B2, “Antibiotics targeting MreB” (The Board of Trustees of the Leland Stamford Junior …, priority 2005, dated 2010).
Values after ≈ are worked out from the molar mass of the structure shown. Where two headings read alike, the source gives them in different places.

Experiments:
[1] = tested on: S. aureus subsp. aureus NBRC15035; test: Determination of minimum inhibitory concentration (MIC); assay type: cell-based, Staphylococcus aureus; settings: Staphylococcus aureus, NBRC15035, Example 2; methods as in Example 1; read-out: MIC S. aureus
Protocol: (§1) Determination of minimum inhibitory concentration (MIC). MICs were also determined on Mueller Hinton agar plates (0.2% beef extract, 1.75% acid digest of casein, 0.15% soluble starch, 1.5% agar, pH 7.3).
(§2) Determination of MIC Minimal inhibitory concentrations (MICs) were determined using a standard 2-fold serial dilution format on L agar plates. Ten microliters of stationary culture diluted in 0.85% NaCl to 10^6 cells/ml were spotted on per plate. […] MICs were also determined on Mueller Hinton agar plates (0.2% beef extract, 1.75% acid digest of casein, 0.15% soluble starch, 1.5% agar, pH 7.3).

[2] = tested on: E. coli K-12 strains (ponB, mreB alleles); test: MICs of mecillinam and A22 for E. coli K-12 strains; assay type: cell-based; settings: Escherichia coli
Protocol: as §2

B. subtilis 168 = test: Determination of minimum inhibitory concentration (MIC); assay type: cell-based, Bacillus subtilis; settings: Bacillus subtilis, 168, Example 2; methods as in Example 1; read-out: MIC B. subtilis
Protocol: as §1, §2

E. coli MG1655 [3] = test: Microscopic observation of cell shape; assay type: cell-based; settings: Example 2; methods as in Example 1
Protocol: Microscopic observation. E. coli K-12 strain MG1655 (F^− λ^−) was grown in Lennox broth containing 1% Polypepton, 0.5% yeast extract, 0.5% NaCl, and 0.1% glucose (pH 7.2). Cells spread on a slide glass were treated with methanol for 5 min and covered with poly-L-lysine. The fixed cells were observed by the differential interference contrast system through an Axioskop 2 microscope (Carl Zeiss Co., Ltd., Oberkochen, Germany). To observe the anucleate cells, cells were stained with a 4′,6-diamidino-2-phenylindole (DAPI) solution (5 μg/ml in saline) and then observed by the fluorescence phase-contrast combined method.
The effect of each compound on E. coli cell morphology was next examined.

S. typhimurium NBRC13245 = test: Determination of minimum inhibitory concentration (MIC); assay type: cell-based, Salmonella typhimurium; settings: Salmonella enterica, Example 2; methods as in Example 1; read-out: MIC S. typhimurium
Protocol: as §1, §2

P. putida NBRC14164 = test: as above; assay type: cell-based, Pseudomonas putida; settings: Pseudomonas putida, NBRC14164, Example 2; methods as in Example 1; read-out: MIC P. putida
Protocol: as §1, §2

E. coli MG1655 [4] = test: as above; assay type: cell-based; settings: Escherichia coli, MG1655, Example 2; methods as in Example 1; read-out: MIC E. coli
Protocol: as §1, §2

E. coli JA221, JST975 = test: Cell shapes of A22-resistant mutant JA221 and parent JST975; assay type: cell-based; settings: mecillinam treatment (1 μg/ml, 2 h, 37° C.)
Protocol: FIG. 9. Effects of A22 and mecillinam on cell shapes of the A22-resistant mutant JA221. Exponentially growing cells of the A22-resistant mutant strain JA221 and the parent strain JST975 were treated with 1 μg/ml mecillinam or 10 μg/ml A22 for 2 h at 37° C. Differential interference contrast microphotographs are shown.
After prolonged (9 days) incubation of the JST975 assay plates, several isolated colonies that grew up within the clear growth inhibitory zones were purified on L plates and their A22-sensitivity was examined.

HoIB-GFP = HoIB-GFP (replisome) localization; assay type: cell-based, Caulobacter crescentus; settings: 1 hr treatment
Protocol: To assess the ability of these cells to assemble a replisome at the replication origins, A22 was administered to cells expressing a fusion of GFP to the HoIB subunit of DNA polymerase.

[5] = tested on: Caulobacter DNA replication; test: Analysis of DNA replication (32P-labeled dGTP incorporation, DNA-content FACS); assay type: cell-based, Caulobacter crescentus; settings: 10 μg/ml A22 or 5 mg/ml HU
Source text: We first examined the incorporation of radiolabeled dGTP into DNA, which linearly correlates with the rate of DNA replication. […] To assess the effect of A22 on DNA replication during the cell cycle, the radiolabeled nucleotide incorporation assay was repeated using synchronized cultures at different points in the cell cycle. Untreated cells display a dramatic rise in radioactivity levels characteristic of DNA replication initiation at the swarmer-to-stalked cell transition. This rise in radioactivity levels was also observed in A22-treated cells (FIG. 6A).
Finally, we examined the DNA content of A22-treated cells by FACS.
Analysis of DNA Replication. DNA replication was assessed by incorporation of 32P-labeled dGTP) or chromomycin-stained DNA-content FACS analysis as described previously.

## CC1(C)S[C@@H]2[C@H](/N=C/N3CCCCCC3)C(=O)N2[C@H]1C(=O)O [mecillinam, reference compound]
[1]
  MIC: 50 µg/mL (≈ 154 µM)
[2]; read-out: MICs, strain JA221 (ponB −, mreB221)
  MIC: 0.125 µg/mL (≈ 0.384 µM)
[2]; read-out: MICs, strain JE1011 (ponB +, mreB +)
  MIC: 0.25 µg/mL (≈ 0.768 µM)
[2]; read-out: MICs, strain JM109/pMW218 (ponB +, mreB +/−)
  MIC: 0.125 µg/mL (≈ 0.384 µM)
[2]; read-out: MICs, strain JM109/pMreB1 (ponB +, mreB +/+)
  MIC: 0.125 µg/mL (≈ 0.384 µM)
[2]; read-out: MICs, strain JM109/pMreB221 (ponB +, mreB +/mreB221)
  MIC: 0.125 µg/mL (≈ 0.384 µM)
[2]; read-out: MICs, strain JST975 (ponB −, mreB +)
  MIC: 0.125 µg/mL (≈ 0.384 µM)
[2]; read-out: MICs, strain JSTA220 (ponB −, mreB +)
  MIC: 0.125 µg/mL (≈ 0.384 µM)
[2]; read-out: MICs, strain JSTA221 (ponB −, mreB221)
  MIC: 0.125 µg/mL (≈ 0.384 µM)
[2]; read-out: MICs, strain WA220 (ponB +, mreB +)
  MIC: 0.25 µg/mL (≈ 0.768 µM)
[2]; read-out: MICs, strain WA221 (ponB +, mreB221)
  MIC: 0.25 µg/mL (≈ 0.768 µM)
B. subtilis 168
  MIC: 12.5 µg/mL (≈ 38.4 µM)
E. coli MG1655 [3]
  Shape: Sphere
S. typhimurium NBRC13245
  MIC: 0.0977 µg/mL (≈ 0.3 µM)
P. putida NBRC14164
  MIC: > 100 µg/mL
E. coli MG1655 [4]
  MIC: 0.0977 µg/mL (≈ 0.3 µM)
E. coli JA221, JST975
  Cell shape of resistant mutant JA221: formed spherical cells

## NC(=O)NO [HU, hydroxyl-urea, reference compound]
HoIB-GFP
  HoIB-GFP localization: rapid delocalization of HoIB-GFP
[5]
  Incorporation of radiolabeled dGTP, synchronized cultures (replication initiation): no such increase in radioactivity levels
